Measured values from US20220089592A1, “IMIDAZO[1,2-A]PYRIDINYL DERIVATIVES AS IRAK4 INHIBITORS” (priority 2019, published 2022).
Structures can show the parent of a compound that is named as a salt.

Molecular target: T1, IRAK4 (Homo sapiens, UniProt Q9NWZ3)
T1 sequence (Q9NWZ3 1-460): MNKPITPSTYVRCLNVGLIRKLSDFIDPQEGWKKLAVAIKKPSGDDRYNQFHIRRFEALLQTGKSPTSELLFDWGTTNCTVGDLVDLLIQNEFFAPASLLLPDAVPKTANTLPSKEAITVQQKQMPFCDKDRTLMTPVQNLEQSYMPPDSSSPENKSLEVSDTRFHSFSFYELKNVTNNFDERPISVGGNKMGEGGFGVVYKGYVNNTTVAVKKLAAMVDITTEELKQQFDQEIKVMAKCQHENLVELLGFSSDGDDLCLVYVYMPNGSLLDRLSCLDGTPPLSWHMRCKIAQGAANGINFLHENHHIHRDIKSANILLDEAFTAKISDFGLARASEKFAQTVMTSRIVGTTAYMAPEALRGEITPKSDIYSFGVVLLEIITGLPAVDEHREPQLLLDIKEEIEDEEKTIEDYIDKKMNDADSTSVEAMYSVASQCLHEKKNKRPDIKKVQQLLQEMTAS
Test: 2-hour 1 mM ATP IRAK4 Biochemical assay (as above, but with 100 pM IRAK4 and 1 mM ATP)
Conditions: IRAK4 MSD BIOCHEMICAL (1 mM ATP) IC50 (μM), 100 pM IRAK4, 2 hours
How it was run: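 Run with 100 pM IRAK4 and 1 mM ATP for 2 hours, quenched with EDTA pH 8. Phosphorylated biotinylated peptide captured on streptavidin MSD plates and detected with anti-phosphothreonine antibody plus Sulfo-Tag secondary by electrochemiluminescence.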

Row | IC50 [µM] | SMILES
1 | 0.001 | O=C(Nc1cn2cc(C3CCOCC3)nc2cc1OC(F)F)c1cccc(C(F)F)n1 [Example 394, N-(7-(difluoromethoxy)-2-(tetrahydro-2H-pyran-4-yl)imidazo[1,2-a]pyridin-6-yl)-6-(difluoromethyl)picolinamide]
2 | 0.001 | CC12CC(c3cn4cc(NC(=O)c5cccc(C(F)F)n5)c(OC(F)F)cc4n3)(CO1)C2 [Example 395, N-(7-(difluoromethoxy)-2-(1-methyl-2-oxabicyclo[2.1.1]hexan-4-yl)imidazo[1,2-a]pyridin-6-yl)-6-(difluoromethyl)picolinamide 2,2,2-trifluoroacetate]
3 | 0.002 | COc1ncccc1C(=O)Nc1cn2cc(C34COC(C)(C3)C4)nc2cc1OC(F)F [Example 396, N-(7-(difluoromethoxy)-2-(1-methyl-2-oxabicyclo[2.1.1]hexan-4-yl)imidazo[1,2-a]pyridin-6-yl)-2-methoxynicotinamide 2,2,2-trifluoroacetate]
4 | 0.021 | Cn1ccc(C(=O)Nc2cn3cc(C45COC(C)(C4)C5)nc3cc2OC(F)F)n1 [Example 397, N-(7-(difluoromethoxy)-2-(1-methyl-2-oxabicyclo[2.1.1]hexan-4-yl)imidazo[1,2-a]pyridin-6-yl)-1-methyl-1H-pyrazole-3-carboxamide 2,2,2-trifluoroacetate]
5 | 0.001 | CC(Oc1cc2nc(C34COC(C)(C3)C4)cn2cc1NC(=O)c1ccn(C)n1)C(F)(F)F (centres unmarked) [Example 399, 1-methyl-N-(2-(1-methyl-2-oxabicyclo[2.1.1]hexan-4-yl)-7-((1,1,1-trifluoropropan-2-yl)oxy)imidazo[1,2-a]pyridin-6-yl)-1H-pyrazole-3-carboxamide 2,2,2-trifluoracetate]
6 | 0.054 | COc1ccccc1C(=O)Nc1cn2cc(Cl)nc2cc1OC(C)C [Example 400, N-(2-chloro-7-isopropoxyimidazo[1,2-a]pyridin-6-yl)-2-methoxybenzamide 2,2,2-trifluoroacetate]
7 | 0.027 | COc1ncccc1C(=O)Nc1cn2cc(Cl)nc2cc1OC(C)C [Example 401, N-(2-chloro-7-isopropoxyimidazo[1,2-a]pyridin-6-yl)-2-methoxynicotinamide]
8 | 0.157 | COc1c(F)cccc1C(=O)Nc1cn2cc(Cl)nc2cc1OC(C)C [Example 402, N-(2-chloro-7-isopropoxyimidazo[1,2-a]pyridin-6-yl)-3-fluoro-2-methoxybenzamide 2,2,2-trifluoroacetate]
9 | 0.004 | CC(C)Cc1cc2nc(C3CCOCC3)cn2cc1NC(=O)c1cccc(C(F)F)n1 [Example 404, 6-(difluoromethyl)-N-(7-isobutyl-2-(tetrahydro-2H-pyran-4-yl)imidazo[1,2-a]pyridin-6-yl)picolinamide]
10 | 0.006 | O=C(Nc1cn2cc(C3CCOCC3)nc2cc1Cl)c1cccc(C(F)F)n1 [Example 405, N-(7-chloro-2-(tetrahydro-2H-pyran-4-yl)imidazo[1,2-a]pyridin-6-yl)-6-(difluoromethyl)picolinamide 2,2,2-trifluoroacetate]
11 | 0.032 | Cc1cc(NC(=O)c2cccc(C(F)F)n2)cn2cc(C34COC(C)(C3)C4)nc12 [Example 406, 6-(difluoromethyl)-N-(8-methyl-2-(1-methyl-2-oxabicyclo[2.1.1]hexan-4-yl)imidazo[1,2-a]pyridin-6-yl)picolinamide]
12 | 0.732 | COc1c(F)cccc1C(=O)Nc1cc(C)c2nc(C34COC(C)(C3)C4)cn2c1 [Example 407, 3-fluoro-2-methoxy-N-(8-methyl-2-(1-methyl-2-oxabicyclo[2.1.1]hexan-4-yl)imidazo[1,2-a]pyridin-6-yl)benzamide]
13 | 0.025 | Cc1cc(NC(=O)c2cccc3ccnn23)cn2cc(C34COC(C)(C3)C4)nc12 [Example 408, N-(8-methyl-2-(1-methyl-2-oxabicyclo[2.1.1]hexan-4-yl)imidazo[1,2-a]pyridin-6-yl)pyrazolo[1,5-a]pyridine-7-carboxamide 2,2,2-trifluoroacetate]
14 | 0.534 | Cc1cc(NC(=O)c2ccn(C)n2)cn2cc(C34COC(C)(C3)C4)nc12 [Example 409, 1-methyl-N-(8-methyl-2-(1-methyl-2-oxabicyclo[2.1.1]hexan-4-yl)imidazo[1,2-a]pyridin-6-yl)-1H-pyrazole-3-carboxamide 2,2,2-trifluoroacetate]
15 | 0.01 | CCOc1cc(NC(=O)c2cccc(C(F)F)n2)cn2cc(C34COC(C)(C3)C4)nc12 [Example 414, 6-(difluoromethyl)-N-(8-ethoxy-2-(1-methyl-2-oxabicyclo[2.1.1]hexan-4-yl)imidazo[1,2-a]pyridin-6-yl)picolinamide 2,2,2-trifluoroacetate]
16 | 0.033 | CCOc1cc(NC(=O)c2cccc(C(F)(F)F)n2)cn2cc(C3CCOCC3)nc12 [Example 415, N-(8-ethoxy-2-(tetrahydro-2H-pyran-4-yl)imidazo[1,2-a]pyridin-6-yl)-6-(trifluoromethyl)picolinamide hydrochloride]
17 | 0.023 | CCOc1cc(NC(=O)c2cccc(C(F)(F)F)n2)cn2cc([C@H]3[C@@H]4COC[C@@H]43)nc12 [Example 416, N-(2-((1R,5S,6s)-3-oxabicyclo[3.1.0]hexan-6-yl)-8-ethoxyimidazo[1,2-a]pyridin-6-yl)-6-(trifluoromethyl)picolinamide]
18 | 0.022 | CCOc1cc(NC(=O)c2cccc(C)n2)cn2cc([C@H]3[C@@H]4COC[C@@H]43)nc12 [Example 417, N-(2-((1R,5S,6s)-3-oxabicyclo[3.1.0]hexan-6-yl)-8-ethoxyimidazo[1,2-a]pyridin-6-yl)-6-methylpicolinamide]
19 | 0.021 | CC(C)Oc1cc(NC(=O)c2cccc(C(F)F)n2)cn2cc(C3CCOCC3)nc12 [Example 418, 6-(difluoromethyl)-N-(8-isopropoxy-2-(tetrahydro-2H-pyran-4-yl)imidazo[1,2-a]pyridin-6-yl)picolinamide 2,2,2-trifluoroacetate]
20 | 0.011 | CC12CC(c3cn4cc(NC(=O)c5cccc(C(F)F)n5)cc(OC(F)F)c4n3)(CO1)C2 [Example 419, N-(8-(difluoromethoxy)-2-(1-methyl-2-oxabicyclo[2.1.1]hexan-4-yl)imidazo[1,2-a]pyridin-6-yl)-6-(difluoromethyl)picolinamide]
21 | 0.071 | COc1ncccc1C(=O)Nc1cc(OC(F)F)c2nc(C34COC(C)(C3)C4)cn2c1 [Example 420, N-(8-(difluoromethoxy)-2-(1-methyl-2-oxabicyclo[2.1.1]hexan-4-yl)imidazo[1,2-a]pyridin-6-yl)-2-methoxynicotinamide 2,2,2-trifluoroacetate]
22 | 0.018 | CC12CC(c3cn4cc(NC(=O)c5cccc6c5OCC6)cc(OC(F)F)c4n3)(CO1)C2 [Example 421, N-(8-(difluoromethoxy)-2-(1-methyl-2-oxabicyclo[2.1.1]hexan-4-yl)imidazo[1,2-a]pyridin-6-yl)-2,3-dihydrobenzofuran-7-carboxamide 2,2,2-trifluoroacetate]
23 | 0.012 | CC12CC(c3cn4cc(NC(=O)c5cccc6ccnn56)cc(OC(F)F)c4n3)(CO1)C2 [Example 422, N-(8-(difluoromethoxy)-2-(1-methyl-2-oxabicyclo[2.1.1]hexan-4-yl)imidazo[1,2-a]pyridin-6-yl)pyrazolo[1,5-a]pyridine-7-carboxamide 2,2,2-trifluoroacetate]
